Source: PubChem BioAssay (NCI)
Values joined by “and” are separate entries in the source; they are usually repeats but may differ in a detail not shown here. Identical values can stand only once.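 Cells were grown in 96-well plates and exposed to each compound for 48 hours at five concentrations; endpoints were interpolated linearly between bracketing concentrations, or set to the highest concentration if not reached. GI50 = concentration required for 50% inhibition of growth. Definition used: TGI = concentration required for complete inhibition of growth.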

What was measured:
Assay in all cases: NCI anticancer screen, dose series, 48 h
SK-MEL-28 melanoma = system: SK-MEL-28 melanoma
HCC-2998 colon = system: HCC-2998 colon
K-562 leukemia = system: K-562 leukemia
SF-268 CNS = system: SF-268 CNS
U251 CNS = system: U251 CNS
OVCAR-8 ovarian = system: OVCAR-8 ovarian
SN12C renal = system: SN12C renal
HCT-116 colon = system: HCT-116 colon
A498 renal = system: A498 renal
RPMI-8226 leukemia = system: RPMI-8226 leukemia

SMILES	TGI (SK-MEL-28 melanoma)	TGI (HCC-2998 colon) [µM]	TGI (K-562 leukemia)	TGI (SF-268 CNS)	TGI (U251 CNS) [µM]	TGI (OVCAR-8 ovarian)	TGI (SN12C renal) [µM]	TGI (HCT-116 colon)	TGI (A498 renal) [µM]	TGI (RPMI-8226 leukemia) [µM]	GI50 (SK-MEL-28 melanoma) [µM]	GI50 (HCT-116 colon) [µM]	GI50 (K-562 leukemia) [µM]	GI50 (SF-268 CNS) [µM]	GI50 (U251 CNS) [µM]	GI50 (OVCAR-8 ovarian) [µM]	GI50 (A498 renal) [µM]	GI50 (RPMI-8226 leukemia) [µM]	GI50 (SN12C renal) [µM]	GI50 (HCC-2998 colon) [µM]
O=C(O)/C(Cl)=C(\Cl)Nc1cccc(C(F)(F)F)c1	> 100 µM	> 100	> 100 µM	> 100 µM	> 100	> 100 µM	> 100	–	–	–	–	–	–	–	–	–	–	–	–	–
COc1cc(C(=O)C/C(CCC(=O)Nc2ccccc2[N+](=O)[O-])=N\NC(=O)C(N)=O)ccc1O	> 100 µM	–	> 100 µM	> 100 µM	> 100	> 100 µM	–	> 100 µM	–	–	–	–	–	–	–	–	–	–	–	–
COc1ccc2cc(C(=O)c3ccccc3C(=O)O)ccc2c1	> 100 µM	> 100	> 100 µM	> 100 µM	> 100	> 100 µM	> 100	> 100 µM	> 100	–	–	–	–	–	–	–	–	–	–	–
Cc1nc(NC(=S)NC(=O)c2ccc(Cl)c(Cl)c2)sc1C(=O)/C=C/c1ccccc1[N+](=O)[O-]	78.4 µM	> 100	42.2 µM	> 100 µM	32.9	63.5 µM	61.7	47.9 µM	–	> 100	–	–	–	–	–	–	–	–	–	–
COC1=CC(=O)c2ccc(C(C)C)cc2C1(C)C1=NC(C)(C)CO1 (stereo not drawn)	> 100 µM	–	> 100 µM	> 100 µM	> 100	> 100 µM	> 100	> 100 µM	–	> 100	–	–	–	–	–	–	–	–	–	–
O=S(=O)(/C=C/C=C/S(=O)(=O)c1ccccc1)c1ccccc1	1.96 µM and 5.79 µM	25.1	1.26 µM and 0.516 µM	8.06 µM and 5.4 µM	11	2.12 µM and 5.95 µM	4.16	2.8 µM and 1.95 µM	–	1.66	2.49	0.606	0.179	2.51	2.7	2.61	–	–	–	–
CC(C)(Cl)CCC1=C(Cl)C(=O)c2ccccc2C1=O	5.26 µM	–	10.6 µM	11.3 µM	8.67	5.03 µM	13.5	3.19 µM	12	4.65	2.4	1.59	1.25	3.07	2.43	2.03	1.85	1.78	3.64	–
CC(C#N)c1cn(S(=O)(=O)c2ccccc2)c2ccccc12 (stereo not drawn)	> 100 µM	> 100	> 100 µM	> 100 µM	> 100	> 100 µM	–	> 100 µM	–	> 100	–	–	–	–	–	–	–	–	–	–
C=C(C)C1CC=C(C(=O)O)CC1 (stereo not drawn)	2640 µM	2340	> 5000 µM	4060 µM	2630	> 5000 µM	> 5000	1500 µM	4420	–	–	–	–	–	–	–	–	–	–	–
CC(C)C1C(=O)N2CCCC2C2(O)OC(NC(=O)C3C=C4c5cccc6[nH]cc(c56)CC4N(C)C3)(C(C)C)C(=O)N12 (stereo not drawn)	> 100 µM	42.9	–	> 100 µM	70.3	52.9 µM	> 100	33.5 µM	–	47.9	–	–	–	–	–	–	–	–	–	–
CC1=CC(=O)C(C)(C2=NC(C)(C)CO2)c2ccccc21 (stereo not drawn)	> 100 µM	–	> 100 µM	> 100 µM	> 100	> 100 µM	> 100	> 100 µM	–	> 100	–	–	–	–	–	–	–	–	–	–
CC[O-].CC[O-].[O-]c1ccccc1C=Nc1ccccc1.[O-]c1ccccc1C=Nc1ccccc1.[Ti+4]	> 100 µM	> 100	> 100 µM	> 100 µM	> 100	> 100 µM	> 100	> 100 µM	–	> 100	> 100	31.8	0.789	> 100	> 100	97.3	–	> 100	> 100	82.9
CCOC(=O)C1Cc2c(ccc(OC)c2OC)C(=O)C1N (stereo not drawn)	> 100 µM	> 100	> 100 µM	–	> 100	> 100 µM	> 100	> 100 µM	–	> 100	–	–	–	–	–	–	–	–	–	–
CCc1ccc(C2=C/C(=C/c3ccc(Cl)cc3)C(=O)N2CCc2ccc(S(N)(=O)=O)cc2)cc1	15.8 µM	7.2	> 100 µM	25.9 µM	4.2	13.1 µM	–	3.23 µM	–	6.14	4.28	1.74	2.81	4.63	2	3.2	–	2.28	–	2.59
O=C(O)C(=O)Cc1ccc2c(c1)OCO2	> 100 µM	–	> 100 µM	–	> 100	> 100 µM	> 100	> 100 µM	> 100	> 100	–	–	–	–	–	–	–	–	–	–
CC1(C)CCC(=O)c2c(O)ccc(O)c21	> 100 µM	> 100	> 100 µM	> 100 µM	> 100	> 100 µM	> 100	> 100 µM	–	> 100	–	–	–	–	–	–	–	–	–	–
CCCCCCCCN(CCCCCCCC)C(=N)c1ccnc2ccccc12	1.07 µM	–	–	2.89 µM	2.58	3.27 µM	2.68	2.55 µM	2.85	–	0.312	1.24	–	1.31	1.23	1.58	1.41	–	1.16	–
